According to US20230129364A1, “PYRROLIDINE DERIVATIVE, AND PHARMACEUTICAL COMPOSITION FOR PREVENTING OR TREATING BETA-AMYLOID OR TAU PROTEIN-ASSOCIATED DISEASES CONTAINING SAME” (YONSEI UNIVERSITY, UNIVERSITY - INDUSTRY FOUNDATION (UIF), priority 2019, published 2023):

Columns and labels:
[1] = target: T1, non-pathological (WT) tau (Homo sapiens, UniProt P10636); test: SPR binding affinity of tau PROTAC to WT tau; conditions: CM5 sensor chip, concentration-dependent kinetic assay, nonpathological WT tau, read-out: binding affinity (Ka) to tau
T1 construct: made in house; host or cells: Star pLysS cells (E. coli), pRSET-B vector, IPTG induction
T1 sequence (P10636 1-441 isoform P10636-8): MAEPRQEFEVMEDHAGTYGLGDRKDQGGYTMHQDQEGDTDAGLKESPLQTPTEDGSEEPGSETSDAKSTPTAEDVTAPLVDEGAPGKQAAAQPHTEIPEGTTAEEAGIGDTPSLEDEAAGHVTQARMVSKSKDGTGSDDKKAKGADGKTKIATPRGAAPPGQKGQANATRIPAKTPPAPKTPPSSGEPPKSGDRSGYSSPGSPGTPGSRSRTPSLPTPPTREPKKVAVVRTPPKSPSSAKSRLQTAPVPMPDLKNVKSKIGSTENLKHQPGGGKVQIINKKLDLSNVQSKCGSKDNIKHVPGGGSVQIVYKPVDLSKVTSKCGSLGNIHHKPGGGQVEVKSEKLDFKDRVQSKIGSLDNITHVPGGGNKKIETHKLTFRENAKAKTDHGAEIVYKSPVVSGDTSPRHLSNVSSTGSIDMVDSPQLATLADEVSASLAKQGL
Protocol: (§1) The following experiment was performed to verify that the compound according to the present invention selectively degrades only phosphorylated tau. In order to biophysically analyze selective binding of the tau PROTAC to P301S, which is known as a representative mutant of pathological tau, non-pathological (WT) tau and pathological (P301S) tau were cloned into pRSET-B vectors to obtain plasmids. Star pLysS cells were used to overexpress proteins and 1 mM IPTG was added to the medium at an OD600 of 0.4 to 0.6. The intracellular proteins were extracted from the cells lysed in a lysis buffer through heat shock (95° C.), and WT tau and P301S tau were obtained at a high purity (>95%) using cation exchange chromatography and size exclusion chromatography.
(§2) Whether or not the obtained proteins bound to the tau PROTAC was determined through an SPR experiment. A CM5 sensor chip including dextran attached thereto was used, tau PROTAC was allowed to flow and the binding affinity between the protein and the compound was determined based on a response unit (RU). The binding affinity (Ka) to the protein was measured using concentration-dependent kinetic assay. The results of measurement of binding affinity between the tau PROTAC compound and non-pathological WT Tau or pathological P301S tau are shown in FIG. 2. […]

P-Tau (S396) = target: T2, P-Tau (S396) (Homo sapiens, UniProt P10636, P618L); test: Phosphorylated tau degradation in HEK293T P301L mutant cell line, Western blot, P-Tau S396; assay type: cell-based; conditions: 72 hours, HEK293T P301L cells, Western blot quantified with Image J
T2 construct: host or cells: HEK293T
T2 sequence (P10636 1-383 isoform P10636-6 P243L): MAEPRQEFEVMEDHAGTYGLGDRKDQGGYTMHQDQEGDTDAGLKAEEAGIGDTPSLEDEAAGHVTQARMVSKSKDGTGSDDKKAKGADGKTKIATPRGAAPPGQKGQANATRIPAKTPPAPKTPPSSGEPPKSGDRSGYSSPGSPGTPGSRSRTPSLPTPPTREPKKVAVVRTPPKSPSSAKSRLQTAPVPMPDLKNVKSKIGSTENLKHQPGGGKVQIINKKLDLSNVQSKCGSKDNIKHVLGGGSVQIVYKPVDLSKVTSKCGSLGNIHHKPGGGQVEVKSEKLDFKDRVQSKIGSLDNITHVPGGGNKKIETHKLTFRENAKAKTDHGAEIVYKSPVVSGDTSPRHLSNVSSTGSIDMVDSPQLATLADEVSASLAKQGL
Source text: (§3) Specifically, the pRK5-EGFP-Tau P301L vector from Addgene (Addgene, MA, USA) was purchased and used in order to stably express P301L, which is a known representative mutation of pathological tau, in HEK293T cells. The P301L vector was inserted into HEK293T cells using a FuGENE HD transfection reagent (Promega, WI, USA) and then stabilized. The cells were removed therefrom and then only the cells into which the vector was inserted were isolated using a fluorescence-activated cell sorter (BD FACS Aria III, BD Bioscience, NJ, USA). After the isolated cells were incubated for 2 to 3 days, they were removed again and separated and cultured using a FACS twice to finally obtain a HEK293T P301 mutant cell line.
(§4) The obtained cells were seeded in each well of a 6-well plate and stabilized for 18 hours, and then each well was treated with the compound of Example 1 such that the final concentration reached 1 or 10 μM. The control group was treated with the same concentration (0.01%) of DMSO used as the solvent of the compound of Example. 72 hours later, the protein was extracted with a lysis buffer and quantified, and then Western blot was performed. A protein sample was electrophoresed on a 4-20% mini-PROTEIN TGX precast protein gel (Bio-Rad, CA, USA) and transferred to a PVDF membrane (Immobilon-P, Merck, Darmstadt, Germany). The primary antibodies used herein were P-Tau AT8 (#MN1020), P-Tau S396 (#44-752G), and P-Tau S356 (#44-751G) from ThermoFisher scientific (MA, USA), and GAPDH (SC-47724) from SANTA CRUZ Biotechnology (TX, USA). The secondary antibody used herein was rabbit/mouse IgG from GeneTex (CA, USA). The image obtained through ImageQuant LAS 4000 (GE healthcare, IL, USA) and the result of quantification using an Image J program are shown in FIG. 1.

pathological (P301S) tau = target: T3, pathological (P301S) tau (Homo sapiens, UniProt P10636, P618S); test: SPR binding affinity of tau PROTAC to P301S tau; conditions: CM5 sensor chip, concentration-dependent kinetic assay, read-out: binding affinity (Ka) to the P301S tau
T3 construct: made in house; host or cells: Star pLysS cells (E. coli), pRSET-B vector, IPTG induction
T3 sequence (P10636 1-441 isoform P10636-8 P301S): as the sequence (P10636 1-441 isoform P10636-8) above, with P301S counted along it
Protocol: as §1, §2

P-Tau AT8 (S202, T205) = target: T4, P-Tau AT8 (S202, T205) (Homo sapiens, UniProt P10636, P618L); test: Phosphorylated tau degradation in HEK293T P301L mutant cell line, Western blot, P-Tau AT8; assay type: cell-based; conditions: 72 hours, HEK293T P301L cells, Western blot quantified with Image J
T4 construct: host or cells: HEK293T
T4 sequence (P10636 1-383 isoform P10636-6 P243L): as the sequence (P10636 1-383 isoform P10636-6 P243L) above
Source text: as §3, §4

P-Tau (S356) = target: T5, P-Tau (S356) (Homo sapiens, UniProt P10636, P618L); test: Phosphorylated tau degradation in HEK293T P301L mutant cell line, Western blot, P-Tau S356; assay type: cell-based; conditions: 72 hours, HEK293T P301L cells, Western blot quantified with Image J
T5 construct: host or cells: HEK293T
T5 sequence (P10636 1-383 isoform P10636-6 P243L): as above
Source text: as §3, §4

Row | Kd [1] [µM] | degradation activity, P-Tau (S396) (P-Tau (S396); 1 μM) [%] | Kd (pathological (P301S) tau) [µM] | degradation activity compared to the control group, P-Tau AT8 (S202, T205) (P-Tau AT8 (S202, T205); 1 μM) [%] | degradation activity compared to the control group, P-Tau AT8 (S202, T205) (P-Tau AT8 (S202, T205); 10 μM) [%] | phosphorylated tau degradation activity, P-Tau (S356) (P-Tau (S356); 1 μM) [%] | phosphorylated tau degradation activity, P-Tau (S356) (P-Tau (S356); 10 μM) [%] | degradation activity, P-Tau (S396) (P-Tau (S396); 10 μM) [%] | SMILES
1 | 199 | 30 | 18.7 | 59 | 53 | 62 | 80 |  | CCN1C(=O)/C(=C/c2cn(Cc3cn(CCOCCOCC(=O)Nc4cccc5c4C(=O)N(C4CCC(=O)NC4=O)C5=O)nn3)c3ccccc23)NC1=S (stereo not shown) [TAU-2 PROTAC, (Z)—N-(2-(2,6-dioxopiperidin-3-yl)-1,3-dioxoisoindolin-4-yl)-2-(2-(2-(4-((3-((1-ethyl-5-oxo-2-thioxoimidazolidin-4-ylidene)methyl)-1H-indol-1-yl)methyl)-1H-1,2,3-triazol-1-yl)ethoxy)ethoxy)acetamide]
2 | 190 | 67 | 42 |  | 26 |  | 81 | 67 | CCN1C(=O)/C(=C/c2cn(Cc3cn(CCOCCOCCOCC(=O)Nc4cccc5c4C(=O)N(C4CCC(=O)NC4=O)C5=O)nn3)c3cccnc23)NC1=S (stereo not shown) [TAU-1 PROTAC, (Z)—N-(2-(2,6-dioxopiperidin-3-yl)-1,3-dioxoisoindolin-4-yl)-2-(2-(2-(2-(4-((3-((1-ethyl-5-oxo-2-thioxoimidazolidin-4-ylidene)methyl)-1H-pyrrolo[3,2-b]pyridin-1-yl)methyl)-1H-1,2,3-triazol-1-yl)ethoxy)ethoxy)ethoxy)acetamide]
